Measured values: patent publication US8148373B2, “Compounds” (AstraZeneca AB, priority 2008, dated 2012)
Structures can show the parent of a compound that is named as a salt.

Key:
[1] = target: T1, Adrenergic β2 (H292 cells) (Homo sapiens, UniProt P07550); assay: Assay for Adrenergic β2 Mediated cAMP Production (concentration response, AlphaScreen cAMP detection); type: cell-based; details: for EC50: cAMP production, 60 minutes at room temperature, 300 μM rolipram, read-out: β2 pEC50 (converted); for β2 Intrinsic activity: fraction relative to the maximum activity determined for formoterol
T1 construct: endogenous in cells; host or cells: H292 cells
How it was run: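 H292 cells plated overnight, pre-treated with rolipram (300 μM final) 10 min, then compound 60 min at room temperature in HBSS/10 mM HEPES pH7.4/5 mM glucose, 1% DMSO. Lysate cAMP read by AlphaScreen against a cAMP standard curve; 4-parameter fit gives pEC50 and intrinsic activity as fraction of formoterol maximum.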

[2] = target: T2, human muscarinic acetylcholine M3 receptor (M3-ACh) (Homo sapiens, UniProt P20309); assay: Muscarinic 3 Receptor Binding Assay ([3H]NMS competition, SPA); details: [3H]NMS 0.1 nM, CHO-K1 cell membranes, 16 hours at room temperature; read-out: M3 pIC50 (converted)
T2 construct: expressed in transfected cells; host or cells: CHO-K1 (Chinese Hamster Ovary) cell membranes
How it was run: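 Competition SPA binding of 0.1 nM [3H]NMS (quarter Kd) to membranes from CHO-K1 cells expressing human M3, in 20 mM HEPES pH 7.4, 5 mM MgCl2, 1% DMSO. Incubated 16 h at room temperature; non-specific binding with 1 µM atropine. pIC50 from 50% reduction of specific binding.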

T1 sequence (P07550 whole entry): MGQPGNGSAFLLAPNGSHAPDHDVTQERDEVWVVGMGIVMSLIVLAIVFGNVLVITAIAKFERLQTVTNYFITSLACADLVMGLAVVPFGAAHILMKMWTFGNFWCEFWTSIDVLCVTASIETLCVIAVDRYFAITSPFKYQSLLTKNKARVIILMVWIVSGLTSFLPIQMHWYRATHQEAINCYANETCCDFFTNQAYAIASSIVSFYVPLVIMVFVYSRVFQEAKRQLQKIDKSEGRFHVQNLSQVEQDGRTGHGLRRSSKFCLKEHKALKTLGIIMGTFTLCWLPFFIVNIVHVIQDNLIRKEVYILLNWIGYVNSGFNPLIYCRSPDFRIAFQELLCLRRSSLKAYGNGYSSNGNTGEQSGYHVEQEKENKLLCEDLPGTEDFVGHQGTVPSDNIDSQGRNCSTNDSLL
T2 sequence (P20309 whole entry): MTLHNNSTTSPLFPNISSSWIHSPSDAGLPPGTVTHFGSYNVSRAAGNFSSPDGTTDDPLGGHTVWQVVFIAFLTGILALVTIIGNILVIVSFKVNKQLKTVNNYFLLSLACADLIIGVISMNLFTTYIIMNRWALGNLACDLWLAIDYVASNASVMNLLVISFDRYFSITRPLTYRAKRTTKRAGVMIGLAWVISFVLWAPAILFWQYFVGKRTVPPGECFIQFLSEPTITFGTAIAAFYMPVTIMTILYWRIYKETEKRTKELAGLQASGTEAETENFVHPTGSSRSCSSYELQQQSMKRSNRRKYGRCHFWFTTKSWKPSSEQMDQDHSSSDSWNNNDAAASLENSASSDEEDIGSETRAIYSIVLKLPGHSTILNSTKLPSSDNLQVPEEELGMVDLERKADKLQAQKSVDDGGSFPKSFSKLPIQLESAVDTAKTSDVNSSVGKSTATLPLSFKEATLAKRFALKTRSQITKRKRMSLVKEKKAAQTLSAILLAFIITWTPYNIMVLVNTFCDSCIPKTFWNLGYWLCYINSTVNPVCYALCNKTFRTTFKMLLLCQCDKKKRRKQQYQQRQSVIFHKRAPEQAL

| EC50 [1] | β2 Intrinsic activity [1] | IC50 [2] | Structure (SMILES) |
| --- | --- | --- | --- |
| 100 nM | 0.9 | 0.316 nM | CC(C)c1nc(C(=O)N2CCOC3(CCN(Cc4cccc(C(F)CNC[C@H](O)c5ccc(O)c6[nH]c(=O)sc56)c4)CC3)C2)cs1 (stereo partly drawn) [Example 39, 7-((1R)-2-(2-Fluoro-2-(3-((4-(2-isopropylthiazole-4-carbonyl)-1-oxa-4,9-diazaspiro[5.5]undecan-9-yl)methyl)phenyl)ethylamino)-1-hydroxyethyl)-4-hydroxybenzo[d]thiazol-2(3H)-one ditrifluoroacetate] |
| 15.8 nM | 0.9 | 1.26 nM | Cc1nc(C(=O)N2CCOC3(CCN(CCc4ccc(CCNC[C@H](O)c5ccc(O)c6[nH]c(=O)sc56)s4)CC3)C2)cs1 [Example 4, (R)-4-Hydroxy-7-(1-hydroxy-2-(2-(5-(2-(4-(2-methylthiazole-4-carbonyl)-1-oxa-4,9-diazaspiro[5.5]undecan-9-yl)ethyl)thiophen-2-yl)ethylamino)ethyl)benzo[d]thiazol-2(3H)-one ditrifluoroacetate] |
| 3.16 nM | 0.9 | 3.16 nM | Cc1ccc(C(=O)N2CC(F)(F)OC3(CCN(Cc4cccc(CCNC[C@H](O)c5ccc(O)c6[nH]c(=O)ccc56)c4)CC3)C2)s1 [Example 37, (R)-5-(2-(3-((2,2-Difluoro-4-(5-methylthiophene-2-carbonyl)-1-oxa-4,9-diazaspiro[5.5]undecan-9-yl)methyl)phenethylamino)-1-hydroxyethyl)-8-hydroxyquinolin-2(1H)-one ditrifluoroacetate] |
| 10 nM | 1 | 794 nM | CCc1cc(C(=O)N2CC(C)(C)OC3(CCN(Cc4cccc(CCNC[C@H](O)c5ccc(O)c6[nH]c(=O)ccc56)c4)CC3)C2)cs1 [Example 272, (R)-5-(2-(3-((4-(5-ethylthiophene-3-carbonyl)-2,2-dimethyl-1-oxa-4,9-diazaspiro[5.5]undecan-9-yl)methyl)phenethylamino)-1-hydroxyethyl)-8-hydroxyquinolin-2(1H)-one ditrifluoroacetate] |
| 7.94 nM | 0.9 | 39.8 nM | CC(C)(C)c1nc(C(=O)N2CCOC3(CCN(Cc4cc(F)cc(CCNC[C@H](O)c5ccc(O)c6[nH]c(=O)sc56)c4)CC3)C2)cs1 [Example 50, (R)-7-(2-(3-((4-(2-tert-Butylthiazole-4-carbonyl)-1-oxa-4,9-diazaspiro[5.5]undecan-9-yl)methyl)-5-fluorophenethylamino)-1-hydroxyethyl)-4-hydroxybenzo[d]thiazol-2(3H)-one ditrifluoroacetate] |
| 158 nM | 1 | 0.316 nM | CC(C)c1nc(C(=O)N2CCOC3(CCN(CCCCCCSCCNC[C@H](O)c4ccc(O)c5[nH]c(=O)sc45)CC3)C2)cs1 [Example 101, (R)-4-Hydroxy-7-(1-hydroxy-2-(2-(6-(4-(2-isopropylthiazole-4-carbonyl)-1-oxa-4,9-diazaspiro[5.5]undecan-9-yl)hexylthio)ethylamino)ethyl)benzo[d]thiazol-2(3H)-one formate] |
| 20 nM | 0.8 | 2.51 nM | Cc1ccc(C(=O)N2CCOC3(CCN(Cc4cccc(OCCNC[C@H](O)c5ccc(O)c6[nH]c(=O)sc56)c4)CC3)C2)s1 [Example 38, (R)-4-Hydroxy-7-(1-hydroxy-2-(2-(3-((4-(5-methylthiophene-2-carbonyl)-1-oxa-4,9-diazaspiro[5.5]undecan-9-yl)methyl)phenoxy)ethylamino)ethyl)benzo[d]thiazol-2(3H)-one ditrifluoroacetate] |
| 15.8 nM | 0.8 | 0.126 nM | Cc1cc(C(=O)N2CCOC3(CCN(CCCCCCCCCNC[C@H](O)c4ccc(O)c5[nH]c(=O)sc45)CC3)C2)cs1 [Example 105, (R)-4-Hydroxy-7-(1-hydroxy-2-(9-(4-(5-methylthiophene-3-carbonyl)-1-oxa-4,9-diazaspiro[5.5]undecan-9-yl)nonylamino)ethyl)benzo[d]thiazol-2(3H)-one formate] |
| 126 nM | 0.9 | 501 nM | O=C(c1csc(-c2ccccc2)n1)N1CCOC2(CCN(CCOc3ccc(CNC[C@H](O)c4ccc(O)c5[nH]c(=O)sc45)cc3)CC2)C1 [Example 112, (R)-4-Hydroxy-7-(1-hydroxy-2-(4-(2-(4-(2-phenylthiazole-4-carbonyl)-1-oxa-4,9-diazaspiro[5.5]undecan-9-yl)ethoxy)benzylamino)ethyl)benzo[d]thiazol-2(3H)-one ditrifluoroacetate] |
| 10 nM | 0.9 | 6.31 nM | O=C(c1csc(C2CCC2)n1)N1CCOC2(CCN(Cc3cc(F)cc(CCNC[C@H](O)c4ccc(O)c5[nH]c(=O)sc45)c3)CC2)C1 [Example 58, (R)-7-(2-(3-((4-(2-Cyclobutylthiazole-4-carbonyl)-1-oxa-4,9-diazaspiro[5.5]undecan-9-yl)methyl)-5-fluorophenethylamino)-1-hydroxyethyl)-4-hydroxybenzo[d]thiazol-2(3H)-one ditrifluoroacetate] |
| 10 nM | 1 | 2.51 nM | Cc1nc(C(=O)N2CCOC3(CCN(Cc4cc(F)cc(CCNC[C@H](O)c5ccc(O)c6[nH]c(=O)ccc56)c4)CC3)C2)cs1 [Example 28, (R)-5-(2-(3-Fluoro-5-((4-(2-methylthiazole-4-carbonyl)-1-oxa-4,9-diazaspiro[5.5]undecan-9-yl)methyl)phenethylamino)-1-hydroxyethyl)-8-hydroxyquinolin-2(1H)-one ditrifluoroacetate] |
| 200 nM | 0.5 | 1 nM | Cc1nc(C(=O)N2CCOC3(CCN(CCc4ccc(CNC[C@H](O)c5ccc(O)c6[nH]c(=O)sc56)s4)CC3)C2)cs1 [Example 21, (R)-4-Hydroxy-7-(1-hydroxy-2-((5-(2-(4-(2-methylthiazole-4-carbonyl)-1-oxa-4,9-diazaspiro[5.5]undecan-9-yl)ethyl)thiophen-2-yl)methylamino)ethyl)benzo[d]thiazol-2(3H)-one ditrifluoroacetate] |
| 50.1 nM | 1 | 1.58 nM | CC(C)c1cc(C(=O)N2CCOC3(CCN(Cc4cccc(CC(C)(C)NC[C@H](O)c5ccc(O)c6[nH]c(=O)ccc56)c4)CC3)C2)cs1 [Example 275, (R)-8-Hydroxy-5-(1-hydroxy-2-(1-(3-((4-(5-isopropylthiophene-3-carbonyl)-1-oxa-4,9-diazaspiro[5.5]undecan-9-yl)methyl)phenyl)-2-methylpropan-2-ylamino)ethyl)quinolin-2(1H)-one ditrifluoroacetate] |
| 5.01 nM | 0.8 | 39.8 nM | CC(C)(C)c1nc(C(=O)N2CCOC3(CCN(Cc4cc(CCNC[C@H](O)c5ccc(O)c6[nH]c(=O)sc56)cs4)CC3)C2)cs1 [Example 43, (R)-7-(2-(2-(5-((4-(2-tert-Butylthiazole-4-carbonyl)-1-oxa-4,9-diazaspiro[5.5]undecan-9-yl)methyl)thiophen-3-yl)ethylamino)-1-hydroxyethyl)-4-hydroxybenzo[d]thiazol-2(3H)-one ditrifluoroacetate] |
| 15.8 nM | 1 | 3.98 nM | CC(C)c1nc(C(=O)N2CCOC3(CCN(CCCCCC(C)(C)CCCNC[C@H](O)c4ccc(O)c5[nH]c(=O)sc45)CC3)C2)cs1 [Example 285, (R)-4-Hydroxy-7-(1-hydroxy-2-(9-(4-(2-isopropylthiazole-4-carbonyl)-1-oxa-4,9-diazaspiro[5.5]undecan-9-yl)-4,4-dimethylnonylamino)ethyl)benzo[d]thiazol-2(3H)-one formate] |
| 3.16 nM | 0.9 | 0.501 nM | CCCc1nc(C(=O)N2CCOC3(CCN(Cc4cccc(CCNC[C@H](O)c5ccc(O)c6[nH]c(=O)sc56)c4)CC3)C2)cs1 [Example 87, (R)-4-Hydroxy-7-(1-hydroxy-2-(3-((4-(2-propylthiazole-4-carbonyl)-1-oxa-4,9-diazaspiro[5.5]undecan-9-yl)methyl)phenethylamino)ethyl)benzo[d]thiazol-2(3H)-one ditrifluoroacetate] |
| 12.6 nM | 1.1 | 0.398 nM | CC(C)c1nc(C(=O)N2CCOC3(CCN(Cc4cc(CCNC[C@H](O)c5ccc(O)c6[nH]c(=O)sc56)ccc4F)CC3)C2)cs1 [Example 40, (R)-7-(2-(4-Fluoro-3-((4-(2-isopropylthiazole-4-carbonyl)-1-oxa-4,9-diazaspiro[5.5]undecan-9-yl)methyl)phenethylamino)-1-hydroxyethyl)-4-hydroxybenzo[d]thiazol-2(3H)-one ditrifluoroacetate] |

| Structure (SMILES) | EC50 [1] | β2 Intrinsic activity [1] | IC50 [2] |
| --- | --- | --- | --- |
| Cc1nc(C(=O)N2CCOC3(CCN(Cc4cccc(CNC[C@H](O)c5ccc(O)c6[nH]c(=O)ccc56)c4)CC3)C2)cs1 [Example 96, (R)-8-Hydroxy-5-(1-hydroxy-2-(3-((4-(2-methylthiazole-4-carbonyl)-1-oxa-4,9-diazaspiro[5.5]undecan-9-yl)methyl)benzylamino)ethyl)quinolin-2(1H)-one ditrifluoroacetate] | > 3200 nM | NV* (inactive up to a max concentration of 3.2 μM of test compound) | 0.251 nM |
